Results from patent US4016158A, “Cephalosporin derivatives” (Roussel-UCLAF, priority 1971, dated 1977).
Converted amounts (≈) assume the structure as drawn. Like-named read-outs stand apart in the source and are kept apart here.

Legend:
Assay in all cases: MIC (Table II)
Type in all cases: cell-based
[1] = test system: Klebsiella pneumoniae 52145; conditions: read-out: minimum inhibition concentration
Description: (§1) The antibiotic activity was determined by the diffusion method in a gelose medium at a pH of 7. The following Table expresses the minimum concentration of inhibition in mcg/ml (CMl) for the products against different microbial strains.
(§2) Using the same procedure as in Table I, the minimum inhibition concentration in mcg/ml was determined against different microbial strains with L(-) cis 7-[D(-)-α-aminophenylacetamido]-3-isopropyl-3-cepheme-4-carboxylic acid (product A) of Example 9.

[2] = test system: Staphylococcus aureus 5880; conditions: read-out: minimum inhibition concentration
Description: as §1, §2

[3] = test system: Proteus mirabilis 3113; conditions: read-out: minimum inhibition concentration
Description: as §1, §2

[4] = test system: Shigella sonnei; conditions: read-out: minimum inhibition concentration
Description: as §1, §2

[5] = test system: Escherichia coli 5524; conditions: read-out: minimum inhibition concentration
Description: as §1, §2

[6] = test system: Escherichia coli 5369; conditions: read-out: minimum inhibition concentration
Description: as §1, §2

[7] = test system: Proteus mirabilis 1668; conditions: read-out: minimum inhibition concentration
Description: as §1, §2

[8] = test system: Escherichia coli 51; conditions: read-out: minimum inhibition concentration
Description: as §1, §2

[9] = test system: Salmonella brandebourg 550; conditions: read-out: minimum inhibition concentration
Description: as §1, §2

[10] = test system: Escherichia coli Taylor; conditions: read-out: minimum inhibition concentration
Description: as §1, §2

[11] = test system: Salmonella typhimurium 420; conditions: Salmonella enterica, read-out: minimum inhibition concentration
Description: as §1, §2

[12] = test system: Staphylococcus aureus A8P; conditions: read-out: minimum inhibition concentration
Description: as §1, §2

[13] = test system: Streptococcus hemolyticus 920; conditions: Streptococcus pyogenes, read-out: minimum inhibition concentration
Description: as §1, §2

[14] = test system: Staphylococcus aureus 397; conditions: read-out: minimum inhibition concentration
Description: as §1, §2

[15] = test system: Escherichia coli 3019; conditions: read-out: minimum inhibition concentration
Description: as §1, §2

[16] = test system: Escherichia coli 1751; conditions: read-out: minimum inhibition concentration
Description: as §1, §2

[17] = test system: Proteus mirabilis 8065; conditions: read-out: minimum inhibition concentration
Description: as §1, §2

[18] = test system: Staphylococcus aureus 9561; conditions: read-out: minimum inhibition concentration
Description: as §1, §2

[19] = test system: Streptococcus hemolyticus 905; conditions: Streptococcus pyogenes, read-out: minimum inhibition concentration
Description: as §1, §2

[20] = test system: Escherichia coli 8497; conditions: read-out: minimum inhibition concentration
Description: as §1, §2

[21] = test system: Staphylococcus aureus 54146; conditions: read-out: minimum inhibition concentration
Description: as §1, §2

[22] = test system: Escherichia coli 070; conditions: read-out: minimum inhibition concentration
Description: as §1, §2

[23] = test system: Proteus mirabilis 6194; conditions: read-out: minimum inhibition concentration
Description: as §1, §2

[24] = test system: Escherichia coli 152; conditions: read-out: minimum inhibition concentration
Description: as §1, §2

[25] = test system: Escherichia coli 4965; conditions: read-out: minimum inhibition concentration
Description: as §1, §2

[26] = test system: Staphylococcus aureus 889; conditions: Staphylococcus aureus, 889, read-out: minimum inhibition concentration
Description: as §1, §2

[27] = test system: Streptococcus hemolyticus 561; conditions: Streptococcus pyogenes, read-out: minimum inhibition concentration
Description: as §1, §2

[28] = test system: Staphylococcus aureus 017; conditions: read-out: minimum inhibition concentration
Description: as §1, §2

[29] = test system: Escherichia coli 5003; conditions: read-out: minimum inhibition concentration
Description: as §1, §2

[30] = test system: Staphylococcus aureus 980; conditions: 24h, read-out: minimum inhibition concentration
Description: as §1, §2

[31] = test system: Staphylococcus aureus 9729; conditions: Staphylococcus aureus, 9729, read-out: minimum inhibition concentration
Description: as §1, §2

## CC(C)C1=C(C(=O)O)N2C(=O)[C@@H](NC(=O)[C@H](N)c3ccccc3)[C@H]2SC1 [Example 9, L (+) cis 7-[D (-)-α-aminophenylacetamido]-3-isopropyl-3-cepheme-4-carboxylic acid]
[1]; 24h
  MIC: 30 µg/mL (≈ 79.9 µM)
[1]; 48h
  MIC: 60 µg/mL (≈ 160 µM)
[1]; 72h
  MIC: > 100 µg/mL
[2]; 24h
  MIC: 2 µg/mL (≈ 5.33 µM)
[2]; 48h
  MIC: 3 µg/mL (≈ 7.99 µM)
[2]; 72h
  MIC: 10 µg/mL (≈ 26.6 µM)
[3]; 24h
  MIC: 100 µg/mL (≈ 266 µM)
[3]; 48h
  MIC: > 100 µg/mL
[4]; 24h
  MIC: 30 µg/mL (≈ 79.9 µM)
[4]; 48h
  MIC: 30 µg/mL (≈ 79.9 µM)
[4]; 72h
  MIC: 30 µg/mL (≈ 79.9 µM)
[5]; 24h
  MIC: 60 µg/mL (≈ 160 µM)
[5]; 48h
  MIC: 60 µg/mL (≈ 160 µM)
[5]; 72h
  MIC: 60 µg/mL (≈ 160 µM)
[6]; 24h
  MIC: 30 µg/mL (≈ 79.9 µM)
[6]; 48h
  MIC: 40 µg/mL (≈ 107 µM)
[6]; 72h
  MIC: 100 µg/mL (≈ 266 µM)
[7]; 24h
  MIC: 100 µg/mL (≈ 266 µM)
[7]; 48h
  MIC: > 100 µg/mL
[8]; 24h
  MIC: 100 µg/mL (≈ 266 µM)
[8]; 48h
  MIC: > 100 µg/mL
[9]; 24h
  MIC: 30 µg/mL (≈ 79.9 µM)
[9]; 48h
  MIC: 30 µg/mL (≈ 79.9 µM)
[9]; 72h
  MIC: 40 µg/mL (≈ 107 µM)
[10]; 24h
  MIC: 40 µg/mL (≈ 107 µM)
[10]; 48h
  MIC: 40 µg/mL (≈ 107 µM)
[10]; 72h
  MIC: 60 µg/mL (≈ 160 µM)
[11]; 24h
  MIC: 60 µg/mL (≈ 160 µM)
[11]; 48h
  MIC: 60 µg/mL (≈ 160 µM)
[11]; 72h
  MIC: > 100 µg/mL
[12]; 24h
  MIC: 1 µg/mL (≈ 2.66 µM)
[12]; 48h
  MIC: 3 µg/mL (≈ 7.99 µM)
[12]; 72h
  MIC: 10 µg/mL (≈ 26.6 µM)
[13]; 24h
  MIC: 2 µg/mL (≈ 5.33 µM)
[13]; 48h
  MIC: 2 µg/mL (≈ 5.33 µM)
[13]; 72h
  MIC: 3 µg/mL (≈ 7.99 µM)
[14]; 24h
  MIC: 2 µg/mL (≈ 5.33 µM)
[14]; 48h
  MIC: 5 µg/mL (≈ 13.3 µM)
[14]; 72h
  MIC: 10 µg/mL (≈ 26.6 µM)
[15]; 24h
  MIC: 30 µg/mL (≈ 79.9 µM)
[15]; 48h
  MIC: 40 µg/mL (≈ 107 µM)
[15]; 72h
  MIC: 40 µg/mL (≈ 107 µM)
[16]; 24h
  MIC: 30 µg/mL (≈ 79.9 µM)
[16]; 48h
  MIC: 30 µg/mL (≈ 79.9 µM)
[16]; 72h
  MIC: 30 µg/mL (≈ 79.9 µM)
[17]; 24h
  MIC: 60 µg/mL (≈ 160 µM)
[17]; 48h
  MIC: > 100 µg/mL
[18]; 24h
  MIC: 1 µg/mL (≈ 2.66 µM)
[18]; 48h
  MIC: 3 µg/mL (≈ 7.99 µM)
[18]; 72h
  MIC: 10 µg/mL (≈ 26.6 µM)
[19]; 24h
  MIC: 2 µg/mL (≈ 5.33 µM)
[19]; 48h
  MIC: 2 µg/mL (≈ 5.33 µM)
[19]; 72h
  MIC: 2 µg/mL (≈ 5.33 µM)
[20]; 24h
  MIC: 100 µg/mL (≈ 266 µM)
[20]; 48h
  MIC: 100 µg/mL (≈ 266 µM)
[20]; 72h
  MIC: 100 µg/mL (≈ 266 µM)
[21]; 24h
  MIC: 1 µg/mL (≈ 2.66 µM)
[21]; 48h
  MIC: 1 µg/mL (≈ 2.66 µM)
[21]; 72h
  MIC: 2 µg/mL (≈ 5.33 µM)
[22]; 24h
  MIC: 40 µg/mL (≈ 107 µM)
[22]; 48h
  MIC: 40 µg/mL (≈ 107 µM)
[22]; 72h
  MIC: 40 µg/mL (≈ 107 µM)
[23]; 24h
  MIC: 60 µg/mL (≈ 160 µM)
[23]; 48h
  MIC: 80 µg/mL (≈ 213 µM)
[23]; 72h
  MIC: > 100 µg/mL
[24]; 24h
  MIC: 30 µg/mL (≈ 79.9 µM)
[24]; 48h
  MIC: 30 µg/mL (≈ 79.9 µM)
[24]; 72h
  MIC: 40 µg/mL (≈ 107 µM)
[25]; 24h
  MIC: 30 µg/mL (≈ 79.9 µM)
[25]; 48h
  MIC: 40 µg/mL (≈ 107 µM)
[25]; 72h
  MIC: 40 µg/mL (≈ 107 µM)
[26]; 24h
  MIC: 5 µg/mL (≈ 13.3 µM)
[26]; 48h
  MIC: 10 µg/mL (≈ 26.6 µM)
[26]; 72h
  MIC: 20 µg/mL (≈ 53.3 µM)
[27]; 24h
  MIC: 0.6 µg/mL (≈ 1.6 µM)
[27]; 48h
  MIC: > 40 µg/mL
[28]; 24h
  MIC: 2 µg/mL (≈ 5.33 µM)
[28]; 48h
  MIC: 5 µg/mL (≈ 13.3 µM)
[28]; 72h
  MIC: 15 µg/mL (≈ 40 µM)
[29]; 24h
  MIC: 40 µg/mL (≈ 107 µM)
[29]; 48h
  MIC: 40 µg/mL (≈ 107 µM)
[29]; 72h
  MIC: 40 µg/mL (≈ 107 µM)
[30]
  MIC: > 40 µg/mL
[31]; 24h
  MIC: 2 µg/mL (≈ 5.33 µM)
[31]; 48h
  MIC: 2 µg/mL (≈ 5.33 µM)
[31]; 72h
  MIC: 5 µg/mL (≈ 13.3 µM)
